Values quoted from earlier work, collected in patent publication US6585958B1, “Medicinal aerosol formulations” (Jago Research AG, priority 1998, dated 2003).

Conditions: at 20° C.

SMILES	density	vapor pressure
FCC(F)(F)F [HFA 134a, 1,1,1,2-tetrafluoroethane]	about 1.2 mg/ml	about 6 bar
FC(C(F)(F)F)C(F)(F)F [HFA 227, 1,1,1,2,3,3,3-heptafluoropropane]	about 1.4 mg/ml	about 4.2 bar
